Measured values published in patent EP4389751A1, “HETEROCYCLIC COMPOUNDS AND USES THEREOF” (Kumquat Biosciences Inc., priority 2021, dated 2024).
pIC50: −log10 of the molar value. Read-outs that look alike come from different tables or passages of the source.

Key:
K-Ras G12S = target: T1, K-Ras G12S (Homo sapiens, UniProt P01116, G12S); assay: HTRF assay of the K-Ras / SOS1 interaction; type: biochemical; details: IC50 (against K-Ras G12D) to IC50 (against K-Ras G12S)
T1 construct: made in house; host or cells: E. coli (e.g., BL21 (DE3))
Outline: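 Compounds (duplicates, 10 µM to 0.01 µM) were incubated ≥~10 min with Eu-labelled GST-K-Ras G12S and XL665-labelled His-hSOS1 in HEPES pH 7.4 buffer containing NaCl, DTT, BSA and Igepal. Disruption measured as HTRF emission ratio 665/620 nm, fitted to IC50.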

GP2D cells = assay: Cell proliferation assay (CellTiter-Glo), K-Ras G12D cells; type: cell-based; details: read-out: Inhibition of GP2D Cells (IC50)
Outline: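 CellTiter-Glo luminescence, taken roughly 5 days after dosing, measured growth of G12D-mutant GP2D cells in DMEM/2 mM glutamine/10% FBS. Compound dilution series (e.g., 9 points, 3-fold) added the day after plating. Four-parameter fitting gave IC50.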

T1 sequence (P01116 1-188 isoform P01116-2 G12S): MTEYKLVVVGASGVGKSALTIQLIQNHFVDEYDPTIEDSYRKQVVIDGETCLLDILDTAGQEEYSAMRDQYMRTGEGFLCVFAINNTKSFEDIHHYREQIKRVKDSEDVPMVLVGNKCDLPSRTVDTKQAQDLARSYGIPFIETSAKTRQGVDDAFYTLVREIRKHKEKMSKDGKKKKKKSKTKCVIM

Compound	Ratio of IC50 KRAS G12D vs. IC50 KRAS G12S (K-Ras G12S)	pIC50 (GP2D cells; GP2D cells (K-Ras G12D))	pIC50 (GP2D cells; GP2d)
Nc1nc2c(-c3c(Cl)cc4c(N5C6CCC5CN(C(=O)n5cncn5)C6)nc(OC[C@@]56CCCN5C[C@H](F)C6)nc4c3F)ccc(F)c2s1 [Compound A239, (8-(7-(2-amino-7-fluorobenzo[d]thiazol-4-yl)-6-chloro-8-fluoro-2-(((2R,7aS)-2-fluorotetrahydro-1H-pyrrolizin-7a(5H)-yl)methoxy)quinazolm-4-yl)-3,8-diazabicyclo[3.2.1]octan-3-yl)(1H-1,2,4-triazol-1-yl)methanone]	A (A: indicates that the ratio of IC50 against KrasG12D vs. IC50 against KrasG12S is 1-fold or greater)	≥ 6.00	–
C[C@@H]1CN(C(=O)n2cncn2)[C@@H](C)CN1c1nc(OC[C@@]23CCCN2C[C@H](F)C3)nc2c(F)c(-c3ccc(F)c4sc(N)nc34)c(Cl)cc12 [Compound A244, ((2S,5R)-4-(7-(2-amino-7-fluorobenzo[d]thiazol-4-yl)-6-chloro-8-fluoro-2-(((2R,7aS)-2-fluorotetrahydro-1H-pyrrolizin-7a(5H)-yl)methoxy)quinazolin-4-yl)-2,5-dimethylpiperazin-1-yl)(1H-1,2,4-triazol-1-yl)methanone]	A (A: indicates that the ratio of IC50 against KrasG12D vs. IC50 against KrasG12S is 1-fold or greater)	5.00 to 6.00	–
N#Cc1cnn(C(=O)N2CC3COCC(C2)N3c2nc(OC[C@@]34CCCN3C[C@H](F)C4)nc3c(F)c(-c4ccc(F)c5sc(N)c(C#N)c45)c(Cl)cc23)c1 [Compound A249, 1-(9-(7-(2-amino-3-cyano-7-fluorobenzo[b]thiophen-4-yl)-6-chloro-8-fluoro-2-(((2R,7aS)-2-fluorotetrahydro-1H-pyrrolizin-7a(5H)-yl)methoxy)quinazolin-4-yl)-3-oxa-7,9-diazabicyclo[3.3.1]nonane-7-carbonyl)-1H-pyrazole-4-carbonitrile]	A (A: indicates that the ratio of IC50 against KrasG12D vs. IC50 against KrasG12S is 1-fold or greater)	≥ 6.00	–
Nc1nc2c(-c3c(Cl)cc4c(N5CCC6(CCN(C(=O)n7cncn7)CC6)CC5)nc(OC[C@@]56CCCN5C[C@H](F)C6)nc4c3F)ccc(F)c2s1 [Compound A250, (9-(7-(2-amino-7-fluorobenzo[d]thiazol-4-yl)-6-chloro-8-fluoro-2-(((2R,7aS)-2-fluorotetrahydro-1H-pyrrolizin-7a(5H)-yl)methoxy)quinazolin-4-yl)-3,9-diazaspiro[5.5]undecan-3-yl)(1H-1,2,4-triazol-1-yl)methanone]	A (A: indicates that the ratio of IC50 against KrasG12D vs. IC50 against KrasG12S is 1-fold or greater)	5.00 to 6.00	–
Nc1nc2c(-c3c(Cl)cc4c(N5CC6(CN(C(=O)n7cncn7)C6)C5)nc(OC[C@@]56CCCN5C[C@H](F)C6)nc4c3F)ccc(F)c2s1 [Compound A264, (6-(7-(2-amino-7-fluorobenzo[d]thiazol-4-yl)-6-chloro-8-fluoro-2-(((2R,7aS)-2-fluorotetrahydro-1H-pyrrolizin-7a(5H)-yl)methoxy)quinazolm-4-yl)-2,6-diazaspiro[3.3]heptan-2-yl)(1H-1,2,4-triazol-1-yl)methanone]	A (A: indicates that the ratio of IC50 against KrasG12D vs. IC50 against KrasG12S is 1-fold or greater)	5.00 to 6.00	–
Nc1nc2c(-c3c(Cl)cc4c(N5C6COCC5CN(C(=O)n5cncn5)C6)nc(OC[C@@]56CCCN5C[C@H](F)C6)nc4c3F)ccc(F)c2s1 [Compound A270, (9-(7-(2-amino-7-fluorobenzo[d]thiazol-4-yl)-6-chloro-8-fluoro-2-(((2R,7aS)-2-fluorotetrahydro-1H-pyrrolizin-7a(5H)-yl)methoxy)quinazolin-4-yl)-3-oxa-7,9-diazabicyclo[3.3.1]nonan-7-yl)(1H-1,2,4-triazol-1-yl)methanone]	A (A: indicates that the ratio of IC50 against KrasG12D vs. IC50 against KrasG12S is 1-fold or greater)	–	≥ 6.00
Nc1nc2c(-c3c(Cl)cc4c(N5CC6CCC(C5)N6C(=O)Nc5ncccn5)nc(OC[C@@]56CCCN5C[C@H](F)C6)nc4c3F)ccc(F)c2s1 [Compound A274, 3-(7-(2-amino-7-fluorobenzo[d]thiazol-4-yl)-6-chloro-8-fluoro-2-(((2R,7aS)-2-fluorotetrahydro-1H-pyrrolizin-7a(5H)-yl)methoxy)quinazolin-4-yl)-N-(pyrimidin-2-yl)-3,8-diazabicyclo[3.2. 1]octane-8-carboxamide]	A (A: indicates that the ratio of IC50 against KrasG12D vs. IC50 against KrasG12S is 1-fold or greater)	≥ 6.00	–
Nc1nc2c(-c3c(Cl)cc4c(N[C@@H]5C[C@H]6CC[C@@H](C5)N6C(=O)n5cncn5)nc(OC[C@@]56CCCN5C[C@H](F)C6)nc4c3F)ccc(F)c2s1 [Compound A286, ((1R,3s,5S)-3-((7-(2-amino-7-fluorobenzo[d]thiazol-4-yl)-6-chloro-8-fluoro-2-(((2R,7aS)-2-fluorotetrahydro-1H-pyrrolizin-7a(5H)-yl)methoxy)quinazolin-4-yl)amino)-8-azabicyclo[3.2.1]octan-8-yl)(1H-1,2,4-triazol-1-yl)methanone]	A (A: indicates that the ratio of IC50 against KrasG12D vs. IC50 against KrasG12S is 1-fold or greater)	–	5.00 to 6.00
Nc1nc2c(-c3c(Cl)cc4c(N5CCC56CCN(C(=O)n5cncn5)CC6)nc(OC[C@@]56CCCN5C[C@H](F)C6)nc4c3F)ccc(F)c2s1 [Compound A288, (1-(7-(2-amino-7-fluorobenzo[d]thiazol-4-yl)-6-chloro-8-fluoro-2-(((2R,7aS)-2-fluorotetrahydro-1H-pyrrolizin-7a(5H)-yl)methoxy)quinazolin-4-yl)-1,7-diazaspiro[3.5]nonan-7-yl)(1H-1,2,4-triazol-1-yl)methanone]	A (A: indicates that the ratio of IC50 against KrasG12D vs. IC50 against KrasG12S is 1-fold or greater)	5.00 to 6.00	–
Nc1nc2c(-c3c(Cl)cc4c(NC5CCN(C(=O)n6cc(F)cn6)CC5)nc(OC[C@@]56CCCN5C[C@H](F)C6)nc4c3F)ccc(F)c2s1 [Compound A291, (4-((7-(2-amino-7-fluorobenzo[d]thiazol-4-yl)-6-chloro-8-fluoro-2-(((2R,7aS)-2-fluorotetrahydro-1H-pyrrolizin-7a(5H)-yl)methoxy)quinazolin-4-yl)amino)piperidin-1-yl)(4-fluoro-1H-pyrazol-1-yl)methanone]	A (A: indicates that the ratio of IC50 against KrasG12D vs. IC50 against KrasG12S is 1-fold or greater)	5.00 to 6.00	–
Nc1nc2c(-c3c(Cl)cc4c(N5CCC6CN(C(=O)n7cncn7)CC6C5)nc(OC[C@@]56CCCN5C[C@H](F)C6)nc4c3F)ccc(F)c2s1 (stereo partly drawn) [Compound A294, (5-(7-(2-amino-7-fluorobenzo[d]thiazol-4-yl)-6-chloro-8-fluoro-2-(((2R,7aS)-2-fluorotetrahydro-1H-pyrrolizin-7a(5H)-yl)methoxy)quinazolin-4-yl)octahydro-2H-pyrrolo[3,4-c]pyridin-2-yl)(1H-1,2,4-triazol-1-yl)methanone]	A (A: indicates that the ratio of IC50 against KrasG12D vs. IC50 against KrasG12S is 1-fold or greater)	5.00 to 6.00	–
N#Cc1c(N)sc2c(F)ccc(-c3c(Cl)cc4c(O[C@H]5C[C@H]6CC[C@@H](C5)N6C(=O)n5cncn5)nc(OC[C@@]56CCCN5C[C@H](F)C6)nc4c3F)c12 [Compound A300, 4-(4-(((1R,3r,5S)-8-(1H-1,2,4-triazole-1-carbonyl)-8-azabicyclo[3.2.1]octan-3-yl)oxy)-6-chloro-8-fluoro-2-(((2R,7aS)-2-fluorotetrahydro-1H-pyrrolizin-7 a(5H)-yl)methoxy)quinazolin-7-yl)-2-amino-7-fluorobenzo[b]thiophene-3-carbonitrile]	A (A: indicates that the ratio of IC50 against KrasG12D vs. IC50 against KrasG12S is 1-fold or greater)	–	5.00 to 6.00
Nc1nc2c(-c3c(Cl)cc4c(N5CCC6(CC5)CN(C(=O)n5cnc(F)c5)C6)nc(OC[C@@]56CCCN5C[C@H](F)C6)nc4c3F)ccc(F)c2s1 [Compound A303, (7-(7-(2-amino-7-fluorobenzo[d]thiazol-4-yl)-6-chloro-8-fluoro-2-(((2R,7aS)-2-fluorotetrahydro-1H-pyrrolizin-7a(5H)-yl)methoxy)quinazolin-4-yl)-2,7-diazaspiro[3.5]nonan-2-yl)(4-fluoro-1H-imidazol-1-yl)methanone]	A (A: indicates that the ratio of IC50 against KrasG12D vs. IC50 against KrasG12S is 1-fold or greater)	5.00 to 6.00	–
